From paper PMC9225741, “Inhibition of Streptococcus mutans adhesion and biofilm formation with small-molecule inhibitors of sortase A from Juniperus chinensis” (Journal of Oral Microbiology, 2022)
Converted amounts (≈) assume the structure as drawn. “Also recorded” adds a separate entry of the source. Like-named read-outs stand apart in the source and are kept apart here. Values belong to the compound of their own block, whether it stands above or below them.

What was measured:
S. mutans OMZ65 = test: Antibacterial activity assay (MIC, broth dilution); assay type: cell-based, Streptococcus mutans; conditions: S. mutans OMZ65, BHI broth, 16–20 h, 37°C, read-out: MIC (minimum inhibitory concentration)
Method: Antibacterial activities of isolated compounds were determined according to a previously described method based on Clinical and Laboratory Standards Institute guidelines. Briefly, 5 mL of S. mutans OMZ65 was inoculated into brain heart infusion (BHI) broth, incubated aerobically for 16 h at 37°C, and the bacterial density was adjusted based on turbidity to match the 0.5 MacFarland standard at 625 nm. In each well of a 96-well plate, 20 μL of twofold diluted test compounds in 10% DMSO was added to 180 μL of cell culture in BHI broth and incubated for 16–20 h at 37°C. The final concentration of cells was approximately 5 × 10^5 colony-forming units (CFU)/mL. The minimal inhibitory concentration (MIC) values were identified as the lowest concentration that inhibited cell growth. Ampicillin was used as an antibacterial positive control.

S. mutans SrtA = target: T1, S. mutans SrtA (Streptococcus mutans, UniProt Q8CM62); test: biochemical; assay type: biochemical, Streptococcus mutans OMZ65
T1 construct: made in house; host or cells: Escherichia coli
T1 sequence (Q8CM62 entry or part of it): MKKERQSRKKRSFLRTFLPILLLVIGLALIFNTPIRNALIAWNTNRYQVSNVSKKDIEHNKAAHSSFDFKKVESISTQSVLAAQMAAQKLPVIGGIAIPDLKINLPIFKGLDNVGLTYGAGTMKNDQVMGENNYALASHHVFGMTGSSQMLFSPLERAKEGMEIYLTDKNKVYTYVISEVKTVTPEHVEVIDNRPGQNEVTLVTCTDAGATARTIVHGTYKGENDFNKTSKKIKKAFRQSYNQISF
Method: Recombinant SrtA protein was prepared following previously described procedures. S. mutans OMZ65 isolated from the human oral cavity was provided by Seoul National University School of Dentistry. The srtA genes derived from S. mutans OMZ65 were expressed in Escherichia coli and SrtA was purified through metal chelate affinity chromatography on Ni-nitriloacetic acid (NTA) resin. Each reaction was performed in a total volume of 100 μL, containing 50 mM Tris-HCl, 150 mM NaCl, and 5 mM CaCl2 at pH 7.5, along with 17 μg of purified SrtA and 250 ng of synthetic substrate (Dabcyl-LPETG-Edans). The sample compounds were added to each reaction mixture with the solvent DMSO (final concentration, 1%). After 1 h of incubation at 37°C, the reactions were quantified based on fluorometric intensity (350 nm excitation and 495 nm emission wavelengths) using a microplate reader (FLx800, BioTek Instruments, Winooski, VT). Triphasiol was used as a positive control for the SrtA inhibitor.
Recombinant SrtA protein derived from S. mutans OMZ65 was prepared from an extract of E. coli transformant using Ni-NTA affinity chromatography. SrtA enzyme activities were measured through a fluorophotometric method using synthetic peptide substrate containing the LPETG motif. […] As SrtA inhibitors may act as anti-infective agents and disrupt bacterial infectiousness without impacting bacterial viability, the MICs of the isolated compounds were evaluated to identify possible effects on S. mutans aggregation, adhesion, and biofilm formation on solid surfaces.

SrtA S. mutans OMZ65 = test system: SrtA S. mutans OMZ65; set-up: method as in PMID 25746812; conditions: read-out: IC50, SrtA inhibitors against S. mutans OMZ65; cited from earlier work
S. mutans = test: Biofilm formation assay (polystyrene plate and resin teeth, safranin staining); assay type: cell-based, Streptococcus mutans; conditions: 24 h
Method: The effect of SrtA inhibition on bacterial biofilm formation was investigated using the polystyrene plate and resin teeth model according to a previously described method. Wild-type S. mutans and srtA mutants were inoculated aerobically into 5 mL of BHI broth at 37°C. Cultures in BHI broth containing 0.1% sucrose (final concentration 5 × 10^5 CFU/mL) were incubated with or without test compounds on 96-well polystyrene plates or with resin teeth (Endura, Shofu Inc., Kyoto, Japan) at 37°C for 24 h under aerobic condition. Biofilms formed on the plate and resin teeth were washed twice with distilled water and then stained with 0.1% safranin for 30 s. After three further washes, the safranin-bound biofilms on plates were dissolved with 30% acetic acid (v/v aqueous solution) and the intensity of absorbance at 530 nm wavelength, indicating safranin, was measured. Biofilms on resin teeth was also washed three times and photographed.
Bacterial adherence and aggregation are initial steps in the biofilm formation process. Through interruption of SrtA enzyme activity, biofilm formation by S. mutans could also be disrupted. To investigate the effect of compound 1 on biofilm formation of S. mutans, the biofilm biomasses of NG8 and srtA mutants formed over 24 h on 96-well plates and resin teeth were assessed through staining with 0.1% safranin.
Figure 5. Inhibition of Streptococcus mutans biofilm formation by compound 1. Biofilm formation assays were performed using a polystyrene 96-well plate (A) and artificial resin teeth (B) at 37°C for 24 h under aerobic condition. […] 0.1% NaF was used as a positive control. Data are presented as the mean ± SD of three independent experiments (* p < 0.05, ** p < 0.01, and *** p < 0.001 based on Student’s t-test).

[1] = test system: SrtA derived from S. mutans UA159; conditions: cited from earlier work
SrtA = conditions: read-out: IC50, SrtA activity; cited from earlier work
[2] = test system: SrtA (from strain ATCC25175); set-up: method as in PMID 24154653; conditions: cited from earlier work
[3] = test system: S. aureus ATCC6537p-derived SrtA; set-up: method as in PMID 16010573; conditions: cited from earlier work
S. mutans NG8 [4] = test: Saliva-induced aggregation assay; assay type: cell-based, Streptococcus mutans
Method: The effect of SrtA inhibitor on bacterial cell aggregation induced by human saliva was conducted according to a previously documented procedure. S. mutans NG8 (wild-type), srtA-deletion mutant (ΔsrtA), and srtA-complemented mutant (ΔsrtA+srtA) were used in this study. These strains were kindly provided by Prof. S. F. Lee (Dalhousie University, Nova Scotia, Canada) and inoculated into Todd Hewitt broth and incubated for 16 h at 37°C, washed twice with KPBS (137 mM NaCl, 2.7 mM KCl, 6.5 mM Na2HPO4, 1.5 mM KH2PO4, pH 7.2), and resuspended in KPBS to an approximate optical density of 1.0 at 700 nm. Assay mixtures consisted of 400 μL of cells, 100 μL of fresh clarified saliva, and diluted test compounds. Saliva was provided from one volunteer (a unmarried person) who had no dental health issues. The collected non-stimulated saliva was clarified by centrifugation (7,000 × g, 10 min, 4°C) and sterilized by membrane filtration (0.2 μm pore size). The mixtures were gently mixed through inversion and incubated aerobically at 37°C for 2 h. Turbidity at 700 nm was recorded every 20 min.
Using a combined bioactivity test, we subsequently examined the inhibitory effects of compound 1 on saliva-induced aggregation of S. mutans (Figure 3). […] Aggregation levels were measured based on the decrease of turbidity at 700 nm. […]

S. mutans NG8 [5] = test: Adherence assay on saliva-coated hydroxyapatite beads; assay type: cell-based, Streptococcus mutans; conditions: 90 min
Method: The effect of SrtA inhibition on bacterial adherence was evaluated using saliva-coated hydroxyapatite beads (s-HAs) [11, 25]. A total of 30 μg of s-HAs (diameter, 80 µm; Bio-Rad, Hercules, CA) were coated with fresh saliva prepared as mentioned above for 1 h at room temperature and rinsed twice with 0.01 M potassium phosphate buffer (KPB; pH 7.0). S. mutans NG8 (wild type), srtA-deletion mutant (ΔsrtA), and srtA-complemented mutant (ΔsrtA + srtA) [11] were inoculated into 5 mL of BHI broth, incubated aerobically for 16 h at 37°C, and diluted to about 10^8 CFU/mL. […] After three rounds of washing with KPB, attachment between s-HAs and S. mutans cells was disrupted through sonication (50 W, 30s) in KPB. Dispersed cells were spread on Mitis-Salivarius agar (Difco, Detroit, MI) plates containing 3.2 mg/mL bacitracin. The number of colonies formed was determined after incubation for 48 h at 37°C.
In the present study, the role of SrtA inhibitors in modulating cell-surface-related properties of S. mutans was investigated in terms of adherence.
Attachment of S. mutans NG8, srtA-deletion mutant (ΔsrtA), and srtA-complemented mutant (ΔsrtA+srtA) was induced for 90 min at 37°C under aerobic condition, followed by dispersal via sonication (50 W, 30s) after three washes, and then colony-forming unit counting on Mitis-Salivarius agar (3.2 mg/mL bacitracin) after incubation for 48 h at 37°C. […]

[6] = SrtA IC50, recombinant SrtA from S. mutans OMZ65, 1 h, 37°C

Compound: COc1cc(O)cc(O)c1C(C)=O [Compound 4, 4,6-dihydroxy-2-methoxyacetophenone]
MIC (S. mutans OMZ65; Streptococcus mutans): > 300 µM
SrtA inhibitory activity (in words) (S. mutans SrtA; S. mutans SrtA): weak inhibitory activities
IC50 (S. mutans SrtA; [6]): 151 µM
IC50 (S. mutans SrtA; pIC50, pIC50 = −log10(IC50), S. mutans SrtA): 155 µM

Compound: (−)-rosmarinic acid
IC50 (SrtA S. mutans OMZ65): 20.1 µM

MIC (S. mutans OMZ65; Streptococcus mutans): 0.4 µM (≈ 0.14 µg/mL)
Compound: CC1(C)S[C@@H]2[C@H](NC(=O)[C@H](N)c3ccccc3)C(=O)N2[C@H]1C(=O)O [Ampicillin, reference compound]

Compound: C/C(=C\Cc1ccc(=O)c(O)cc1C(C)C)CO [Compound 6, juniperone A]
MIC (S. mutans OMZ65; Streptococcus mutans): 257 µM (≈ 63.8 µg/mL)
IC50 (S. mutans SrtA; [6]): 62.5 µM

Compound: [F-].[Na+] [NaF, reference compound]
effect on S. mutans biofilm formation (positive control) (S. mutans; 0.1%): potent inhibitory effects

Compound: O=c1c(O)c(-c2ccc(O)cc2O)oc2cc(O)cc(O)c12 [morin]
IC50 [1]: 27.2 µM

Compound: CC(C)c1cc(=O)c(O)ccc1O [Compound 5, 5-hydroxyhinokitiol]
MIC (S. mutans OMZ65; Streptococcus mutans): > 300 µM
IC50 (S. mutans SrtA; [6]): 51.7 µM

Compound: COc1cc(C[C@H]2COC(=O)[C@@H]2Cc2ccc(O)c(OC)c2)ccc1O [Compound 2, (−)-matairesinol]
MIC (S. mutans OMZ65; Streptococcus mutans): > 300 µM
IC50 (S. mutans SrtA; [6]): > 300 µM

Compound: O=c1c(O)c(-c2cc(O)c(O)c(O)c2)oc2cc(O)cc(O)c12 [myricetin]
IC50 (SrtA): 48.7 µM

Compound: COc1cc(/C=C/C(=O)CC(=O)/C=C/c2ccc(O)c(OC)c2)ccc1O [curcumin]
IC50 [1]: 10.2 µM

Compound: O=c1c(O)c(-c2ccc(O)c(O)c2)oc2cc(O)cc(O)c12 [Compound 3, quercetin]
MIC (S. mutans OMZ65; Streptococcus mutans): > 300 µM
SrtA inhibitory activity (in words) (S. mutans SrtA; S. mutans SrtA): weak inhibitory activities

Compound: C[C@@H]1O[C@@H](O[C@H]2C(=O)c3c(O)cc(O)cc3O[C@@H]2c2ccc(O)c(O)c2)[C@H](O)[C@H](O)[C@H]1O [Astillbin]
IC50, SrtA (from strain ATCC25175) [2]: 7.5 µg/mL (≈ 16.7 µM)
IC50 ([2]; value in brackets): 16.7 µM

Compound: O=C(O)/C=C/c1ccc(O)c(O)c1 [caffeic acid]
IC50 (SrtA S. mutans OMZ65): 20.2 µM

Compound: CC(C)C(=O)Cc1c(OCC(O)C(C)(C)O)ccc2ccc(=O)oc12 (stereo not drawn) [Triphasiol, reference compound]
IC50 [3]: 34.5 µM
pIC50 (S. mutans SrtA; pIC50 = −log10(IC50), S. mutans SrtA): 4.60
IC50 (S. mutans SrtA; recombinant SrtA from S. mutans OMZ65, 1 h, 37°C, read-out: SrtA IC50): 25.3 µM

Compound: COc1cc(C[C@H]2COC(=O)[C@@H]2Cc2cc(O)c(O)c(OC)c2)cc(O)c1O [Compound 1, 3’,3”-dihydroxy-(−)-matairesinol]
MIC (S. mutans OMZ65): >300 µM
MIC (S. mutans OMZ65; Streptococcus mutans): > 300 µM
IC50 (S. mutans SrtA; [6]): 16.1 µM
saliva-induced cell aggregation (S. mutans NG8 [4]; 4× the IC50, without sucrose): significantly repressed
saliva-induced aggregation of NG8 cells (turbidity at 700 nm) (S. mutans NG8 [4]; tested at 0×, 1×, 2× and 4× the SrtA IC50 (16.1, 32.2, 64.4 μM), 2 h, 37°C): markedly reduced the aggregation of NG8 cells in a dose-dependent manner; also recorded: markedly reduced the aggregation capacity of the bacterial cells in a dose-dependent manner
biofilm formation on 96-well polystyrene plates (S. mutans; 4× the IC50 (64.4 μM), 0.1% sucrose): significantly reduced
concentrations disrupting biofilm formation on the surface of resin teeth (S. mutans; 0.1% sucrose, safranin staining): higher than 32.2 μM
adherence of S. mutans to s-HAs vs control (NG8) (S. mutans NG8 [5]; 1× IC50 (16.1 μM)): not significantly different
decrease of bacterial adhesion to s-HAs compared to the control group (S. mutans NG8 [5]; 4× the IC50 (64.4 μM)): about 60%
